How the values were obtained:
[1] = system: Diabrotica balteata larvae in soil; test: Critical concentration test/soil insects, Diabrotica balteata; type: in vivo; conditions: Diabrotica balteata, 168 h; 20.0 ppm in soil, 7 days after infestation; read-out: Kill in %
Description: (§1) To produce a suitable preparation of active compound, 1 part by weight of the active compound or the active compound mixture is mixed with the stated amounts of solvent and emulsifier, and the concentrate is diluted with water to the desired concentration.
(§2) The active compound preparation is mixed intimately with soil. Here, the concentration of the active compound in the preparation is almost irrelevant; only the amount by weight of active compound or active compound mixture per volume unit of soil, which is stated in ppm (mg/l), matters.
Soil is filled into 0.5 l pots and these are allowed to stand at 20° C. Immediately after preparation, 5 pre-germinated maize corns are placed into each pot. After 2 days, the test insects are placed into the treated soil. After a further 7 days, the kill in % is determined. 100% means that all test insects have been killed; 0% means that none of the test insects have been killed.

Spodoptera frugiperda = test: Critical concentration test/soil insects, Spodoptera frugiperda; type: in vivo; conditions: 120 h, 20.00 ppm in soil, 5 days after infestation, read-out: Kill in %
Description: as §1, §2
Soil is filled into 0.5 l pots and these are allowed to stand at 20° C. Immediately after preparation, 3 pre-germinated maize corns are placed into each pot. After the maize corns have emerged, boring sleeves are placed onto the pots. 9 days after preparation, the maize is populated with the test insects. After a further 5 days, the kill in % is determined. 100% means that all test insects have been killed; 0% means that the number of insects which are still alive is the same as for the untreated control.

[2] = system: caterpillars of the diamondback moth (Plutella xylostella); test: Plutella test (cabbage leaf dip); type: in vivo; conditions: concentration 0.1 %
Description: (§3) To produce a suitable preparation of active compound, 1 part by weight of an active compound or an active compound combination is mixed with the stated amounts of solvent and emulsifier, and the concentrate is diluted with water to the desired concentration.
Cabbage leaves (Brassica oleracea) are treated by being dipped into the preparation of active compound of the desired concentration and are populated with caterpillars of the diamondback moth (Plutella xylostella) while the leaves are still moist.
After the desired period of time, the kill in % is determined 100% means that all caterpillars have been killed; 0% means that none of the caterpillars have been killed.

green peach aphid = test: Myzus test (cabbage leaf dip); type: in vivo, Myzus (green peach aphid); conditions: concentration 0.1 %
Description: as §3
Cabbage leaves (Brassica oleracea) which are heavily infested by the green peach aphid are treated by being dipped into the active compound preparation of the desired concentration.
After the desired period of time, the kill in % is determined. 100% means that all aphids have been killed; 0% means that none of the aphids have been killed.

[3] = system: Phaedon cochleariae larvae; test: Critical concentration test/root-systemic action, Phaedon cochleariae; type: in vivo; conditions: 72 h, 20.00 ppm in soil, root-systemic, 3 days after infestation, read-out: Kill in %
Description: as §1, §2
Soil is filled into 250 ml pots and these are planted with cabbage (Brassica oleracea). The active compound or the active compound combination can thus be taken up by the plant roots from the soil and transported into the leaves.
After 7 days, the leaves are populated with the abovementioned test animals. After a further 3 days, the kill in % is determined. 100% means that all test insects have been killed; 0% means that the number of insects which are still alive is the same as in the untreated control.

[4] = system: green rice leaf hopper (Nephotettix cincticeps); test: Nephotettix test (rice seedling dip); type: in vivo; conditions: concentration 0.1 %
Description: as §3
Rice seedlings (Oryza sativa) are treated by being dipped into the active compound preparation of the desired concentration and are populated with the green rice leaf hopper (Nephotettix cincticeps) while the leaves are still moist.
After the desired period of time, the kill in % is determined. 100% means that all the leaf hoppers have been killed; 0% means that none of the leaf hoppers have been killed.

Pyrenophora teres = Pyrenophora teres test (barley)/protective; type: in vivo; conditions: 18.75 g/ha, single active compound
Description: as §3, with “of” for “of an”, “or” for “or an”, “desired concentration, or a commercial formulation of active compound or active compound combination is diluted with water to the desired” for “desired”
To test for protective activity, young plants are sprayed with the active compound preparation at the stated application rate. After the spray coating has dried on, the plants are sprayed with a conidia suspension of Pyrenophora teres. The plants remain in an incubation cabin at 20° C. and 100% relative atmospheric humidity for 48 hours.
The plants are then placed in a greenhouse at a temperature of approximately 20° C. and a relative atmospheric humidity of approximately 80%.
(§4) Evaluation is carried out 7 days after the inoculation. 0% means an efficacy which corresponds to that of the control, whereas an efficacy of 100% means that no infection is observed.

Botrytis cinerea = test: Botrytis test (bean)/protective; type: in vivo; conditions: single active compound
Description: as §3, with “of” for “of an”, “or” for “or an”, “desired concentration, or a commercial formulation of active compound or active compound combination is diluted with water to the desired” for “desired”
To test for protective activity, young plants are sprayed with the active compound preparation at the stated application rate. After the spray coating has dried on, 2 small pieces of agar colonized by Botrytis cinerea are placed onto each leaf. The inoculated plants are placed in a dark chamber at approximately 20° C. and 100% relative atmospheric humidity.
2 days after the inoculation, the size of the disease spots on the leaves is evaluated. 0% means an efficacy which corresponds to that of the control, whereas an efficacy of 100% means that no infection is observed.

Phytophthora infestans = type: in vivo; conditions: 10 g/ha, single active compound
[5] = system: Erysiphe graminis f.sp. hordei; test: Erysiphe test (barley)/protective; type: in vivo; conditions: 18.75 g/ha, single active compound
Description: as §3, with “of” for “of an”, “or” for “or an”, “desired concentration, or a commercial formulation of active compound or active compound combination is diluted with water to the desired” for “desired”
To test for protective activity, young plants are sprayed with the preparation of active compound at the stated application rate.
After the spray coating has dried on, the plants are dusted with spores of Erysiphe graminis f.sp. hordei.
The plants are placed in a greenhouse at a temperature of approximately 20° C. and a relative atmospheric humidity of approximately 80% to promote the development of mildew pustules.
as §4

SMILES | pest or weed control at 20 ppm [1] | pest or weed control at 20 ppm (Spodoptera frugiperda) | Kill in % [2] | Kill in % (green peach aphid) | pest or weed control at 20 ppm [3] | Kill in % [4] | Efficacy in % calculated/found (Pyrenophora teres) | Efficacy in % (Botrytis cinerea; 40 g/ha) | Efficacy in % (Phytophthora infestans) | Efficacy in % calculated/found [5] | Efficacy in % (Botrytis cinerea; 500 g/ha)
N#Cc1c[nH]cc1-c1cccc(Cl)c1Cl [fenpiclonil] | 0% | 0% | 0% | 0% | 0% | – | – | – | – | – | –
O=C(Nc1ccccc1)N(Cc1ccc(Cl)cc1)C1CCCC1 [pencycuron] | 0% | – | 0% | 0% | – | 0% | – | – | – | – | –
COCC(=O)N(c1c(C)cccc1C)C(C)C(=O)OC (centres unmarked) [metalaxyl] | 0% | 0% | – | 0% | 0% | 0% | – | – | – | – | –
CC(C)(C)C(O)C(Oc1ccc(Cl)cc1)n1cncn1 (centres unmarked) [triadimenol] | 0% | 0% | – | – | 0% | – | 40% | – | – | – | –
CO/C=C(/C(=O)OC)c1ccccc1Oc1cc(Oc2ccccc2C#N)ncn1 [azoxystrobin] | 0% | 0% | – | – | 0% | – | 0% | 42% | 74% | – | –
CN(C)C(=S)SSC(=S)N(C)C [TMTD] | 0% | – | 0% | – | – | 0% | – | – | – | – | –
CC(C)(C)C(O)C(Oc1ccc(-c2ccccc2)cc1)n1cncn1 (centres unmarked) [bitertanol] | 0% | 0% | – | – | 0% | – | – | – | – | 0% | 30%

Reference: US7179814B2, “Agents for controlling plant pests” (priority 1998, dated 2007)
